Here are results for 13 compounds from patent publication US12421254B2, “KRAS modulators and uses thereof” (Quanta Therapeutics, Inc., priority 2023, dated 2025).

pIC50: −log10 of the molar value. A value given as a limit tells only on which side of the number the result lay.

The target in experiment [1] is GST-tagged KRAS-G12D (2-169) (Homo sapiens, UniProt P01116, G12D). In words: Nucleotide exchange assay (NEA), SOS-mediated, HTRF, KRAS G12D. The class given is biochemical. The note with it: Table 4; IC50 extracted at 30 min; 20 nM SOScat; read-out: NEA G12D IC50. The gist of the method: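 Compound preincubated 1 h at RT with 0.25 nM GST-KRAS-G12D (2-169) and anti-GST Tb donor, then 20 nM SOS1cat (564-1049) and 150 nM GTP-DY-647P1 added; pH 7.3 HEPES buffer with MgCl2 and DTT. HTRF monitored at RT; % inhibition versus DMSO and no-SOS blank, 4-parameter IC50 taken at 30 min.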
(In general: Time-resolved FRET reads energy transfer from a long-lived donor to a nearby acceptor.)

For experiment [2], the target named is GST-tagged KRAS-G12V (2-169) (Homo sapiens, UniProt P01116, G12V). In words: Nucleotide exchange assay (NEA), SOS-mediated, HTRF, KRAS G12V. It counts as biochemical. The following applies: Table 4; IC50 extracted at 90 min; 80 nM SOS. A digest of the protocol: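 GST-KRAS-G12V (2-169), 0.25 nM, pre-incubated 1 h at RT with compound, then SOS1cat (564-1049) 80 nM and GTP-DY-647P1 150 nM added in HEPES pH 7.3 buffer with MgCl2 and DTT. HTRF via anti-GST Tb cryptate read over 90 min; IC50 from 4-parameter fit at 90 min, blanked to no-SOS reactions.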

In experiment [3] the test system is phospho-ERK in SW620 (KRAS-G12V) cells. In words: pERK In Cell Western (ICW) assay (Method B), SW620. It counts as cell-based. The following applies: Homo sapiens, SW-620, 3 h, Table 4. As to the method: pERK ICW is a high throughput screening assay to evaluate the cellular potency of mutant KRAS small molecule inhibitors. KRAS mutant cell lines AGS, GP2D (KRAS-G12D) as well as SW620 (KRAS-G12V) were purchased from ATCC and maintained respectively in RPMI/DMEM/RPMI medium supplemented with 10% fetal bovine serum.
Cells grown in exponential phase were trypsinized, resuspended in fresh media, and viable cells were counted using a cell counter with Trypan Blue (BioRad TC20). Cells were seeded into 384-well plate (Greiner 781091) at density of 5,000 cells/well for AGS and 10,000 cells/well for GP2D/SW620 and allowed to grow overnight in a 37° C. CO2 incubator. The next day, compounds were dispensed into wells with a ½ log, 9-point serial dilution using a Tecan D300e dispenser and incubated for 3 hours in a 37° C. CO2 incubator. Cells were then fixed with paraformaldehyde (Electron Microscopy Sciences, 15710, 4% final concentration) for 30 min, permeabilized with wash buffer (1×PBS+0.1% Triton X-100) for 30 min and blocked with Odyssey blocking buffer (Li—COR 927-70001) for 1 hour, all at room temperature (RT). Phospho-ERK antibody (CST 4370L) was diluted 1:500 in Odyssey T20 (PBS) antibody diluent (Li—COR 927-75001) and incubated with cells overnight at 4° C. The next day, plates were washed 5× with wash buffer, incubated with IRDye 800 CW, Goat anti-Rabbit secondary antibody (Li—COR 926-32211, 1:800) and DRAQ5 (CST 4084L, 1:5,000) diluted in Odyssey T20 (PBS) antibody diluent for 1 hour, washed 5×, and imaged on an Odyssey CLx imaging system.
For data analysis, signal intensities from 800 (phosphor-ERK) and 700 (DRAQ5) channels were extracted, and phospho-ERK signals were normalized to DRAQ5 signals for each well and percent of blank control values were computed. Data were then imported into Graphpad Prism to compute half-maximal inhibitory concentrations (IC50) using a 4-parameter variable slope model. Z-factor for each plate was computed from signals derived from wells treated with either DMSO or 5 μM of control compound. AGS pERK ICW (Method B) IC50 (uM) values of selected compounds are depicted in Table 2 with compounds having a value ≥0.001 uM to 0.01 uM as ++++; ≥0.01 uM to 0.1 uM as +++; ≥0.1 uM to 1 uM as ++; ≥1 uM to 10 uM as + and ≥10 uM as NA.

GST-tagged KRAS-G12V (2-169), sequence (P01116 2-169 isoform P01116-2 G12V): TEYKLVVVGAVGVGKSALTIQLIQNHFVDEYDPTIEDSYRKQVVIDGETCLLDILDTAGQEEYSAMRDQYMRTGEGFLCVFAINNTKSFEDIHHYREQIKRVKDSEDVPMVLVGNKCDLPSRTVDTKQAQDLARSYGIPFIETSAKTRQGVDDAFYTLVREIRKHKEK
GST-tagged KRAS-G12D (2-169), sequence (P01116 2-169 isoform P01116-2 G12D): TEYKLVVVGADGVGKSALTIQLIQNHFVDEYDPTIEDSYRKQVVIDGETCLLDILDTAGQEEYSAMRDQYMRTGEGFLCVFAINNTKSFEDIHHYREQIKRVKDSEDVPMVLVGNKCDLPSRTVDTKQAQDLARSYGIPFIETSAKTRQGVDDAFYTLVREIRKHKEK

As usually defined, the pIC50 is −log10 of the IC50, conventionally taken in molar units. Regarding `CC1(O)CCCN(c2nc(OCC34CCCN3C(COc3cc(C(F)(F)F)ncn3)CC4)nc(N3CC4(C3)SCc3sc(N)c(C#N)c34)n2)C1` (single isomer, unassigned) [Compound 256A], the pIC50 in experiment [1] was more than 8.00; in experiment [2], more than 8.00; in experiment [3] it was 6.00 to 7.00.

Turning to `CCN(c1nc(OC[C@@]23CCCN2C[C@H](F)C3)nc(N2CC3(C2)SCc2sc(N)c(C#N)c23)n1)C(C)CC#N` (stereo partly drawn) [Compound 254, 2-amino-1′-[4-[(2-cyano-1-methyl-ethyl)-ethyl-amino]-6-[[(2R,8S)-2-fluoro-1,2,3,5,6,7-hexahydropyrrolizin-8-yl]methoxy]-1,3,5-triazin-2-yl]spiro[6H-thieno[3,4-b]thiophene-4,3′-azetidine]-3-carbonitrile; formic acid], the values for the negative-log IC50 (pIC50) in experiment [1], in experiment [2] and in experiment [3] were more than 8.00, more than 8.00 and 6.00 to 7.00, respectively.

Regarding `N#CCN(c1nc(OC[C@@]23CCCN2C[C@H](F)C3)nc(N2CC3(C2)SCc2sc(N)c(C#N)c23)n1)C1(C#N)CC1` [Compound 251, 2-amino-1′-[4-[(1-cyanocyclopropyl)-(cyanomethyl)amino]-6-[[(2R,8S)-2-fluoro-1,2,3,5,6,7-hexahydropyrrolizin-8-yl]methoxy]-1,3,5-triazin-2-yl]spiro[6H-thieno[3,4-b]thiophene-4,3′-azetidine]-3-carbonitrile], the pIC50 in experiment [1] was more than 8.00; in experiment [2], more than 8.00; in experiment [3], 7.00 to 8.00.

Consider `C[C@H](c1cccnc1N)N(CC#N)c1nc(OC[C@@]23CCCN2C[C@H](F)C3)nc(N2CC3(C2)SCc2sc(N)c(C#N)c23)n1` [Compound 246, 2′-amino-1-(4-(((R)-1-(2-aminopyridin-3-yl)ethyl)(cyanomethyl)amino)-6-(((2R,7aS)-2-fluorotetrahydro-TH-pyrrolizin-7a(5H)-yl)methoxy)-1,3,5-triazin-2-yl)-6′H-spiro[azetidine-3,4′-thieno[3,4-b]thiophene]-3′-carbonitrile], for which the pIC50 in experiment [1], in experiment [2] and in experiment [3] was more than 8.00 in each case.

For the compound `C#CCN(c1nc(OC[C@@]23CCCN2C[C@H](F)C3)nc(N2CC3(C2)SCc2sc(N)c(C#N)c23)n1)C1(C#N)CC1` [Compound 247, 2-amino-1′-[4-[(1-cyanocyclopropyl)-prop-2-ynyl-amino]-6-[[(2R,8S)-2-fluoro-1,2,3,5,6,7-hexahydropyrrolizin-8-yl]methoxy]-1,3,5-triazin-2-yl]spiro[6H-thieno[3,4-b]thiophene-4,3′-azetidine]-3-carbonitrile], the pIC50 in experiment [1] was more than 8.00; in experiment [2] it was more than 8.00; in experiment [3], 6.00 to 7.00.

In the case of `N#Cc1c(N)sc2c1C1(CN(c3nc(OC[C@@]45CCCN4C[C@H](F)C5)nc(N(CC(=O)O)C4(C#N)CC4)n3)C1)SC2` [Compound 259, 2-[[4-(2-amino-3-cyano-spiro[6H-thieno[3,4-b]thiophene-4,3′-azetidine]-1′-yl)-6-[[(2R,8S)-2-fluoro-1,2,3,5,6,7-hexahydropyrrolizin-8-yl]methoxy]-1,3,5-triazin-2-yl]-(1-cyanocyclopropyl)amino]acetic acid], the pIC50 in experiment [3] was 4.70 to 6.00.

For the compound `Cc1ccc(C(C)N(C)c2nc(OC[C@@]34CCCN3C[C@H](F)C4)nc(N3CC4(C3)SCc3sc(N)c(C#N)c34)n2)c(N)n1` (stereo partly drawn) [Compound 230, 2′-amino-1-(4-((1-(2-amino-6-methylpyridin-3-yl)ethyl)(methyl)amino)-6-(((2R,7aS)-2-fluorotetrahydro-1H-pyrrolizin-7a(5H)-yl)methoxy)-1,3,5-triazin-2-yl)-6′H-spiro[azetidine-3,4′-thieno[3,4-b]thiophene]-3′-carbonitrile], the pIC50 in experiment [1] and in experiment [2] was 4.70 to 6.00 in each case.

For the compound `N#Cc1c(N)sc2c1C1(CC2)CN(c2nc(OC[C@@]34CCCN3C[C@H](F)C4)nc(N(CCO)Cc3c(F)ccnc3N)n2)C1` [Compound 154, 2-amino-1′-[4-[(2-amino-4-fluoro-3-pyridyl)methyl-(2-hydroxyethyl)amino]-6-[[(2R,8S)-2-fluoro-1,2,3,5,6,7-hexahydropyrrolizin-8-yl]methoxy]-1,3,5-triazin-2-yl]spiro[5,6-dihydrocyclopenta[b]thiophene-4,3′-azetidine]-3-carbonitrile], the figures for the pIC50 in experiment [1] and in experiment [2] were 7.00 to 8.00 and more than 8.00, respectively.

`CC(c1nsnc1N)N(C)c1nc(OC[C@@]23CCCN2C[C@H](F)C3)nc(N2CC3(C2)SCc2sc(N)c(C#N)c23)n1` (single isomer, unassigned) [Compound 184B, 2-amino-1′-[4-[[(1*)-1-(4-amino-1,2,5-thiadiazol-3-yl)ethyl]-methyl-amino]-6-[[(2R,8S)-2-fluoro-1,2,3,5,6,7-hexahydropyrrolizin-8-yl]methoxy]-1,3,5-triazin-2-yl]spiro[6H-thieno[2,3-c]thiophene-4,3′-azetidine]-3-carbonitrile]: the pIC50 is 6.00 to 7.00 in experiment [1] and 7.00 to 8.00 in experiment [2].

As to `C[C@]1(CO)C[C@H](O)CN1c1nc(OC[C@@]23CCCN2C[C@H](F)C3)nc(N2CC3(CCc4sc(N)c(C#N)c43)C2)n1` [Compound 72, 2-amino-1′-[4-[[(2R,8S)-2-fluoro-1,2,3,5,6,7-hexahydropyrrolizin-8-yl]methoxy]-6-[(2R,4S)-4-hydroxy-2-(hydroxymethyl)-2-methyl-pyrrolidin-1-yl]-1,3,5-triazin-2-yl]spiro[5,6-dihydrocyclopenta[b]thiophene-4,3′-azetidine]-3-carbonitrile], the pIC50 in experiment [1] and in experiment [2] was 6.00 to 7.00 in each case.

Regarding `N#Cc1c(N)sc2c1C1(CN(c3nc(OC[C@@]45CCCN4C[C@H](F)C5)nc(Oc4cc[nH]n4)n3)C1)SC2` [Compound 165, 2-amino-1′-[4-[[(2R,8S)-2-fluoro-1,2,3,5,6,7-hexahydropyrrolizin-8-yl]methoxy]-6-(1H-pyrazol-3-yloxy)-1,3,5-triazin-2-yl]spiro[6H-thieno[3,4-b]thiophene-4,3′-azetidine]-3-carbonitrile], the pIC50 in experiment [1] was 4.70 to 6.00; in experiment [2], 6.00 to 7.00.

In the case of `CC(c1cncnc1O)N(C)c1nc(OC[C@@]23CCCN2C[C@H](F)C3)nc(N2CC3(CCc4sc(N)c(C#N)c43)C2)n1` (stereo partly drawn) [Compound 155, 2-amino-1′-[4-[[(2R,8S)-2-fluoro-1,2,3,5,6,7-hexahydropyrrolizin-8-yl]methoxy]-6-[1-(4-hydroxypyrimidin-5-yl)ethyl-methyl-amino]-1,3,5-triazin-2-yl]spiro[5,6-dihydrocyclopenta[b]thiophene-4,3′-azetidine]-3-carbonitrile], the pIC50 in experiment [1] and in experiment [2] was 4.70 to 6.00 in each case.

Take `CC(=O)N1CCC(N(C)c2nc(OC[C@@]34CCCN3C[C@H](F)C4)nc(N3CC4(C3)SCc3sc(N)c(C#N)c34)n2)C1C` (stereo partly drawn) [Compound 260, 1′-[4-[(1-acetyl-2-methyl-pyrrolidin-3-yl)-methyl-amino]-6-[[(2R,8S)-2-fluoro-1,2,3,5,6,7-hexahydropyrrolizin-8-yl]methoxy]-1,3,5-triazin-2-yl]-2-amino-spiro[6H-thieno[3,4-b]thiophene-4,3′-azetidine]-3-carbonitrile]: the figures for the pIC50 in experiment [1] and in experiment [2] were 6.00 to 7.00 and 7.00 to 8.00, respectively.
